Experimental data: ChEMBL document CHEMBL3638693, “Pyrazole compound and pharmaceutical use thereof” (2014)

Molecular target: T1, Sodium/glucose cotransporter 1 (Homo sapiens, UniProt P13866)
T1 sequence (P13866 whole entry): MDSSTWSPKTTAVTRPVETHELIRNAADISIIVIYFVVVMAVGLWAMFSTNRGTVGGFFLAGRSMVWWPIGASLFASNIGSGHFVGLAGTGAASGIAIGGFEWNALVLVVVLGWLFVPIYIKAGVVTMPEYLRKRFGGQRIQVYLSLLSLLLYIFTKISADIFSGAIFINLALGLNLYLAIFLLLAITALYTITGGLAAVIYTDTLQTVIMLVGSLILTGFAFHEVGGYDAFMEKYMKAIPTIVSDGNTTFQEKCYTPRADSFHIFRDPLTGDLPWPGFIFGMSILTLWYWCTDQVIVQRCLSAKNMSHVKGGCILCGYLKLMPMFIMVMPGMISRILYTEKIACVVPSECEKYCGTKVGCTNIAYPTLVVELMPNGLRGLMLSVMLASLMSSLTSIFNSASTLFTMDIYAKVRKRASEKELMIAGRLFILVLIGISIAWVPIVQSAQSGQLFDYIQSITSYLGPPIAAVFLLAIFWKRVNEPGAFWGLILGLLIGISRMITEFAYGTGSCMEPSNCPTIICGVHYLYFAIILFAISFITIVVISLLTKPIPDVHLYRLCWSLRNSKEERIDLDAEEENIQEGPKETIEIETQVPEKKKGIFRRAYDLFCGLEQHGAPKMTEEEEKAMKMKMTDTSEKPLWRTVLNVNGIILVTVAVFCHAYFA
Assay: Inhibition Assay: The stable cell line expressing human SGLT1 was seeded at 5x10^4 cells/well on BioCoat Poly-D-Lysine 96 well plate with Lid (Becton Dickinson and Company) and cultured at 37 C. under 5% CO2 overnight. The medium was replaced with 100 uL/well of a Na (+) buffer (140 mM choline chloride, 2 mM KCl, 1 mM MgCl2, 1 mM CaCl2, 10 mM HEPES, 5 mM Tris, pH7.4) followed by incubation for 20 minutes at 37 C. under 5% CO2. After removing the Na (+) buffer, a test compound solution which was prepared from Na (+) buffer (140 mM NaCl, 2 mM KCl, 1 mM MgCl2, 1 mM CaCl2, 10 mM HEPES, 5 mM Tris, pH7.4) containing BSA was added thereto at 40 uL/well. In addition, Na (+) buffer containing 8 kBq of 14C-AMG and 2 mM AMG was added thereto at 40 uL/well, and was mixed well. Na (+) buffer containing BSA was added to a blank well at 40 uL/well and additionally adding a Na (+) buffer containing 8 kBq of 14C-AMG and 2 mM AMG, and was mixed well.

- IC50: 22 nM
Structure (SMILES): O=C1C[C@H](C(=O)Nc2cc(-c3cccc(COCC(F)(F)F)c3)n(-c3ccc(F)cc3)n2)CN1
